According to US20220324835A1 (Nurix Therapeutics, Inc., priority 2018, published 2022):
Read-outs that look alike come from different tables or passages of the source.

What was measured:
[1] = test system: T-cell; experiment: IL-2 secretion from T-cells co-stimulated with anti-CD3 and anti-CD28 antibody (Biological Example 2); assay type: cell-based, human; conditions: Homo sapiens, T-cell, primary human total T-cells
Summary of the method: (§1)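 No assay protocol given; T-cells stimulated with anti-CD3 alone or anti-CD3 plus anti-CD28, with or without Cbl-b inhibitor. Activation read as IL-2 secretion or CD25 surface staining, expressed as fold over baseline from uninhibited cells […].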

[2] = biological target: Cbl-b (Homo sapiens, UniProt Q13191); experiment: Cbl-b inhibition assay (Cbl-b activity assay, FRET, Biological Example 1; 100 mM NaCl, 60 nM Src kinase); assay type: biochemical; conditions: upper bound stated in text lists; read-out: IC50 values in the Cbl-b inhibition assay of Biological Example 1
Summary of the method: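 Inhibitor activity is measured as reduced terbium-to-fluorescein FRET between streptavidin-terbium on biotinylated Cbl-b and Bodipy-fluorescein ubiquitin carried by an irreversible UbcH5B-Ub conjugate, binding of which depends on Src phosphorylation of Cbl-b.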

[3] = test system: T-cell; experiment: CD25 cell surface staining on T-cells co-stimulated with anti-CD3 and anti-CD28 antibody (Biological Example 2); assay type: cell-based, human; conditions: Homo sapiens, T-cell, primary human total T-cells
Summary of the method: as §1

[4] = test system: primary human NK cells; experiment: NK cell activation assessed by cytokine secretion (coculture with K562 NucRed target cells); assay type: cell-based; conditions: for fold induction at 0.625 µM: 0.625 μM compound; for fold induction at 2.5 µM: 2.5 μM compound
Experimental: Peripheral blood mononuclear cells (PBMC) were obtained either: 1) by using Ficoll-Paque™ (GE Healthcare) for separation of peripheral blood hematopoietic cells from buffy coats of healthy human donors; or 2) directly from LeukoPak donations. […] The cells were cultured overnight with IL-2 (60 ng/mL) at 37° C. 5% CO2. Cbl-b inhibitors were added 1 hour prior to stimulation and incubated at 37° C. 5% CO2 at a specific concentration (e.g., 10 μM, 1 μM, or 0.1 μM) with a final DMSO concentration of <0.1%. NK cells were co-cultured with target cells that were engineered to have a red nucleus (K562 NucRed) measurable by flow cytometry. […] The cells were mixed at the indicated ratios (e.g., 5:1, 1:1, or 1:5) of NK (effector cells) to K562 NucRed (target cells) for 6 hours. Cell free supernatants were collected and analyzed for cytokine secretion (e.g. TNFα, IFNγ, or MIP1β) by ELISA or Luminex multiplex kits following the manufacturer's protocol. IFNγ secretion was assessed using an R&D Systems ELISA kit (Catalog #DY285), TNFα secretion was assessed using an R&D Systems ELISA kit (Catalog #DY210), and MIP1β secretion was assessed using an R&D Systems ELISA kit (Catalog #DY271).
Readouts were reported as fold change over baseline. Baseline for this study was the measurement obtained from primary human NK effector cells cocultured with K562 NucRed target cells in the absence of a Cbl-b inhibitor. For NK cells cocultured with K562 NucRed cells, changes greater than 2.0-fold over baseline for cytokine secretion were considered a positive response (Table 10a and 10b).

[5] = fold change over baseline, 0.3 μM Cbl-b inhibitor, read-out: IL-2 secretion Anti-CD3/Anti-CD28 stimulation
[6] = fold change over baseline, 1 μM Cbl-b inhibitor, read-out: IL-2 secretion Anti-CD3/Anti-CD28 stimulation
[7] = fold change over baseline, 4 μM Cbl-b inhibitor, read-out: IL-2 secretion Anti-CD3/Anti-CD28 stimulation
[8] = fold change over baseline, 0.3 μM Cbl-b inhibitor, read-out: CD25 staining Anti-CD3/Anti-CD28 stimulation
[9] = fold change over baseline, 1 μM Cbl-b inhibitor, read-out: CD25 staining Anti-CD3/Anti-CD28 stimulation
[10] = fold change over baseline, 4 μM Cbl-b inhibitor, read-out: CD25 staining Anti-CD3/Anti-CD28 stimulation
[11] = K562, NK cells cocultured with K562 NucRed, 1:1 E/T, read-out: IFNγ secretion, fold change over baseline
[12] = K562, NK cells cocultured with K562 NucRed, 1:1 E/T, read-out: TNFα secretion, fold change over baseline
[13] = K562, NK cells cocultured with K562 NucRed, 1:1 E/T, 10 μM compound, read-out: IFNγ secretion, fold change over baseline
[14] = K562, NK cells cocultured with K562 NucRed, 1:1 E/T, 10 μM compound, read-out: TNFα secretion, fold change over baseline
[15] = 0.3 μM compound, baseline = anti-CD3/anti-CD28 stimulated cells without inhibitor, read-out: IL-2 secretion, Anti-CD3/Anti-CD28 stimulation, fold change over baseline
[16] = 1 μM compound, baseline = anti-CD3/anti-CD28 stimulated cells without inhibitor, read-out: IL-2 secretion, Anti-CD3/Anti-CD28 stimulation, fold change over baseline
[17] = 4 μM compound, baseline = anti-CD3/anti-CD28 stimulated cells without inhibitor, read-out: IL-2 secretion, Anti-CD3/Anti-CD28 stimulation, fold change over baseline
[18] = 0.3 μM compound, baseline = anti-CD3/anti-CD28 stimulated cells without inhibitor, read-out: CD25 staining, Anti-CD3/Anti-CD28 stimulation, fold change over baseline
[19] = 1 μM compound, baseline = anti-CD3/anti-CD28 stimulated cells without inhibitor, read-out: CD25 staining, Anti-CD3/Anti-CD28 stimulation, fold change over baseline
[20] = 4 μM compound, baseline = anti-CD3/anti-CD28 stimulated cells without inhibitor, read-out: CD25 staining, Anti-CD3/Anti-CD28 stimulation, fold change over baseline

Chain of Cbl-b (Q13191 36-427): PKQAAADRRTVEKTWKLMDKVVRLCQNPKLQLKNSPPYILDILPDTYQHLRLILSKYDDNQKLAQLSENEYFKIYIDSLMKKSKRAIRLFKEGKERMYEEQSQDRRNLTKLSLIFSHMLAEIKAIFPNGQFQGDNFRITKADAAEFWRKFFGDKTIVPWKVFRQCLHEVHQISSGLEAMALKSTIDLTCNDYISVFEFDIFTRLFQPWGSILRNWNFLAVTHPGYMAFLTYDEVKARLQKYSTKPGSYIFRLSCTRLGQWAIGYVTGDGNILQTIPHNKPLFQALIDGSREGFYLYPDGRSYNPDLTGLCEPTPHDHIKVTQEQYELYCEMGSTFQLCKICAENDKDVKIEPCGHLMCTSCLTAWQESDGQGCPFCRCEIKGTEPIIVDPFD

| SMILES | fold induction at 0.3 µM [1, 5] | fold induction at 1 µM [1, 6] | fold induction at 4 µM [1, 7] | IC50 [2] | fold induction at 0.3 µM [3, 8] | fold induction at 1 µM [3, 9] | fold induction at 4 µM [3, 10] | fold induction at 0.625 µM [4, 11] | fold induction at 0.625 µM [4, 12] | fold induction at 2.5 µM [4, 11] | fold induction at 2.5 µM [4, 12] | fold induction at 10 µM [4, 13] | fold induction at 10 µM [4, 14] | fold induction at 0.3 µM [1, 15] | fold induction at 1 µM [1, 16] | fold induction at 4 µM [1, 17] | fold induction at 0.3 µM [3, 18] | fold induction at 1 µM [3, 19] | fold induction at 4 µM [3, 20] | other results |
| --- | --- | --- | --- | --- | --- | --- | --- | --- | --- | --- | --- | --- | --- | --- | --- | --- | --- | --- | --- | --- |
| Cn1cnnc1CC1(c2cccc(NC(=O)c3nc4c(C(F)(F)F)cccc4[nH]3)c2)COC1 [Compound 335, N-(3-{3-[(4-methyl-1,2,4-triazol-3-yl)methyl]oxetan-3-yl}phenyl)-4-(trifluoromethyl)-1H-1,3-benzodiazole-2-carboxamide] | 2.51 to 5 | 5 to 7.5 | > 7.5 | ≤ 100 nM | 1.31 to 1.5 | 1.51 to 1.75 | 1.51 to 1.75 | 1.01 to 2 | 1.01 to 2 | 2.01 to 5 | 1.01 to 2 | 2.01 to 5 | 2.01 to 5 |  |  |  |  |  |  |  |
| Cn1cnnc1C(F)(F)[C@](C)(F)c1cccc(N2Cc3c(cc(N4CCNCC4)cc3C(F)(F)F)C2=O)c1 [Compound 442, (R)-6-(Piperazin-1-yl)-2-(3-(1,1,2-trifluoro-1-(4-methyl-4H-1,2,4-triazol-3-yl)propan-2-yl)phenyl)-4-(trifluoromethyl)isoindolin-1-one] |  |  |  | ≤ 100 nM |  |  |  | 2.01 to 5 | 2.01 to 5 | 2.01 to 5 | 2.01 to 5 | 2.01 to 5 | 1.01 to 2 | 2.51 to 5 | > 7.5 | > 7.5 | 1.31 to 1.5 | 1.51 to 1.75 | 1.51 to 1.75 |  |
| C[C@H](c1cc2c(c(C(F)(F)F)c1)CN(c1cccc(C3(Cc4nncn4C)COC3)c1)C2=O)N1CC[C@H](F)C1 [Compound 413, 6-((R)-1-((S)-3-fluoropyrrolidin-1-yl)ethyl)-2-(3-(3-((4-methyl-4H-1,2,4-triazol-3-yl)methyl)oxetan-3-yl)phenyl)-4-(trifluoromethyl)isoindolin-1-one] |  |  |  | ≤ 100 nM |  |  |  | 2.01 to 5 | 2.01 to 5 | > 5 | 2.01 to 5 | > 5 | 2.01 to 5 | 5 to 7.5 | > 7.5 | > 7.5 | 1.31 to 1.5 | 1.51 to 1.75 | 1.31 to 1.5 |  |
| Cc1n[nH]c(C)c1-c1cc2c(c(C(F)(F)F)c1)CN(c1cccc(C3(Cc4nncn4C)COC3)c1)C2=O [Compound 385, 6-(3,5-dimethyl-1H-pyrazol-4-yl)-2-(3-{3-[(4-methyl-4H-1,2,4-triazol-3-yl)methyl]oxetan-3-yl}phenyl)-4-(trifluoromethyl)-2,3-dihydro-1H-isoindol-1-one] |  |  |  | ≤ 100 nM |  |  |  | 1.01 to 2 | < 1 | 2.01 to 5 | 1.01 to 2 | 2.01 to 5 | 1.01 to 2 | 1.01 to 2.5 | 2.51 to 5 | > 7.5 | 1.01 to 1.3 | 1.01 to 1.3 | 1.31 to 1.5 |  |
| C[C@@H](c1cc2c(c(C(F)(F)F)c1)CN(c1cccc(C3(Cc4nncn4C)COC3)c1)C2=O)N1CC[C@H](F)C1 [Compound 412, 6-((S)-1-((S)-3-fluoropyrrolidin-1-yl)ethyl)-2-(3-(3-((4-methyl-4H-1,2,4-triazol-3-yl)methyl)oxetan-3-yl)phenyl)-4-(trifluoromethyl)isoindolin-1-one] |  |  |  | ≤ 100 nM |  |  |  | 2.01 to 5 | 2.01 to 5 | 2.01 to 5 | 2.01 to 5 | > 5 | 2.01 to 5 | > 7.5 | > 7.5 | > 7.5 | 1.31 to 1.5 | 1.51 to 1.75 | 1.51 to 1.75 |  |
| C[C@H](Cc1nncn1C)c1cccc(NC(=O)c2cc(C(=O)N3CC[C@H](O)C3)cc(C(F)(F)F)n2)c1 [Compound 220, 4-((S)-3-hydroxypyrrolidine-1-carbonyl)-N-(3-((R)-1-(4-methyl-4H-1,2,4-triazol-3-yl)propan-2-yl)phenyl)-6-(trifluoromethyl)picolinamide] | 2.51 to 5 | > 7.5 | > 7.5 | ≤ 100 nM | 1.31 to 1.5 | 1.51 to 1.75 | > 1.76 |  |  |  |  |  |  |  |  |  |  |  |  | fold induction at 1 µM ([4]; K562, 1:1 E/T, read-out: IFNγ secretion): 1.01 to 2; fold induction at 1 µM ([4]; K562, 1:1 E/T, read-out: MIP1β secretion): 1.01 to 2; fold induction at 1 µM ([4]; K562, 1:1 E/T, read-out: TNFα secretion): 1.01 to 2; fold induction at 10 µM ([4]; K562, 1:1 E/T, 10 μM, read-out: IFNγ secretion): 2.01 to 5; fold induction at 10 µM ([4]; K562, 1:1 E/T, 10 μM, read-out: MIP1β secretion): 2.01 to 5; fold induction at 10 µM ([4]; K562, 1:1 E/T, 10 μM, read-out: TNFα secretion): 2.01 to 5; fold induction at 1 µM ([4]; K562, 5:1 E/T, read-out: IFNγ secretion): 1.01 to 2; fold induction at 1 µM ([4]; K562, 5:1 E/T, read-out: MIP1β secretion): 1.01 to 2; fold induction at 1 µM ([4]; K562, 5:1 E/T, read-out: TNFα secretion): 1.01 to 2; fold induction at 10 µM ([4]; K562, 5:1 E/T, 10 μM, read-out: IFNγ secretion): 2.01 to 5; fold induction at 10 µM ([4]; K562, 5:1 E/T, 10 μM, read-out: MIP1β secretion): 2.01 to 5; fold induction at 10 µM ([4]; K562, 5:1 E/T, 10 μM, read-out: TNFα secretion): 2.01 to 5 |
| Cc1cc(C(=O)Nc2cccc([C@@H](C)Cc3nncn3C)c2)nc(C2CC2)n1 [Compound 325, (S)-2-Cyclopropyl-6-methyl-N-(3-(1-(4-methyl-4H-1,2,4-triazol-3-yl)propan-2-yl)phenyl)pyrimidine-4-carboxamide] | 1.01 to 2.5 | 1.01 to 2.5 | 2.51 to 5 | ≤ 300 nM | 1.01 to 1.3 | 1.01 to 1.3 | 1.01 to 1.3 | 1.01 to 2 | < 1 | 1.01 to 2 | < 1 | 2.01 to 5 | 1.01 to 2 |  |  |  |  |  |  |  |
